Assay results as given in ChEMBL document CHEMBL5506043, “A β-Carboline Derivate PAD4 Inhibitor Reshapes Neutrophil Phenotype and Improves the Tumor Immune Microenvironment against Triple-Negative Breast Cancer” (J Med Chem, 2024).
Calls of active or inactive are those of the source. No cut-off for these calls is given here.

What was measured:
[1] = molecular target: Protein-arginine deiminase type-2 (Homo sapiens, UniProt Q9Y2J8); experiment: Inhibition of PAD2 (unknown origin) using Nalpha-benzoyl-L-arginine ethyl ester as substrate preincubated for 60 mins followed by substrate addition and measured after 90 mins by colorimetric analysis
[2] = Cytotoxicity against human MCF-10A cells assessed as inhibition of cell growth incubated for 48 hrs by MTT assay; assay type: toxicity, cell-based
[3] = test system: 4T1; experiment: Antimetastatic activity in starved mouse 4T1 cells assessed as inhibition of cell migration by measuring reduction in number of metastatic cells incubated for 12 hrs by crystal violet staining based transwell assay; assay type: functional; conditions: dose 0.5-2 µM
[4] = test system: 4T1; experiment: Antimetastatic activity in starved mouse 4T1 cells assessed as inhibition of cell migration by measuring reduction in wound closure rate incubated for 24 hrs by scratch wound healing assay; assay type: functional, cell-based; conditions: dose 0.5-2 µM
[5] = molecular target: Protein-arginine deiminase type-4 (Mus musculus) (UniProt Q9Z183); experiment: Inhibition of PAD4 in mouse 4T1 cells assessed as reduction in histone H3 citrullination measured after 48 hrs by immunoblot analysis; assay type: cell-based; conditions: dose 0.5-2 µM
[6] = test system: 4T1; experiment: Upregulation of feedback regulation-mediated PAD4 protein expression in mouse 4T1 cells at 0.5 to 2 uM measured after 48 hrs by immunoblot analysis; assay type: functional, cell-based; conditions: dose 0.5-2 µM
[7] = molecular target: Protein-arginine deiminase type-4 (Mus musculus) (UniProt Q9Z183); experiment: Inhibition of PAD4 in mouse 4T1 cells assessed as reduction in histone H3 citrullination at 2 uM by immunofluorescence analysis; assay type: cell-based
[8] = molecular target: Protein-arginine deiminase type-4 (Mus musculus) (UniProt Q9Z183); experiment: Inhibition of PAD4 in BALB/c mouse bone marrow neutrophils assessed as reduction in neutrophil extracellular traps formation at 2 uM preincubated for 2 hrs followed by calcium ionophore A23187 addition and measured after 2 hrs by Hoechst 33342/Ly6G staining based laser confocal microscopic analysis; assay type: tissue-based; conditions: time 4.0 hrs
[9] = Cmax in male Sprague-Dawley rat at 3.5 mg/kg, iv by LC-MS/MS analysis; assay type: ADME, organism-based; conditions: in vivo
[10] = AUC (0 to t) in male Sprague-Dawley rat at 3.5 mg/kg, iv by LC-MS/MS analysis; assay type: ADME, organism-based; conditions: in vivo
[11] = AUC (0 to infinity) in male Sprague-Dawley rat at 3.5 mg/kg, iv by LC-MS/MS analysis; assay type: ADME, organism-based; conditions: in vivo
[12] = test system: 4T1-Luc; experiment: Antitumor activity against mouse orthotopic 4T1-Luc cells implanted in iv dosed female BALB/c mouse assessed as reduction in tumor weight administered via tail vein every 2 days for 9 times for 17 days and measured every 2 days; assay type: functional, organism-based; conditions: dose 1-10 mg/kg, time 17.0 day
[13] = Antitumor activity against mouse orthotopic 4T1-Luc cells implanted in female BALB/c mouse assessed as tumor growth inhibition at 10 mg/kg, iv administered via tail vein every 2 days for 9 times for 17 days and measured every 2 days relative to control; assay type: functional; conditions: 408 h, time 17 day, read-out: TGI
[14] = test system: 4T1-Luc; experiment: Antimetastatic activity against mouse orthotopic 4T1-Luc cells implanted in iv dosed female BALB/c mouse assessed as reduction in lung metastasis administered via tail vein every 2 days for 9 times for 17 days by IVIS live cell imaging analysis; assay type: functional, organism-based; conditions: dose 1-10 mg/kg, time 17.0 day
[15] = test system: 4T1-Luc; experiment: Antimetastatic activity against mouse orthotopic 4T1-Luc cells implanted in iv dosed female BALB/c mouse assessed as reduction in lung metastasis by measuring reduction in metastatic lung nodules administered via tail vein every 2 days for 9 times for 17 days; assay type: functional, organism-based; conditions: dose 1-10 mg/kg, time 17.0 day
[16] = test system: 4T1-Luc; experiment: Antimetastatic activity against mouse orthotopic 4T1-Luc cells implanted in iv dosed female BALB/c mouse assessed as reduction in lung metastasis administered via tail vein every 2 days for 9 times for 17 days by H and E staining based analysis; assay type: functional, organism-based; conditions: dose 1-10 mg/kg, time 17.0 day
[17] = Toxicity in female BALB/c mouse implanted with mouse orthotopic 4T1-Luc cells assessed as effect on viscero-somatic ratio at 1 to 10 mg/kg, iv administered via tail vein every 2 days for 9 times for 17 days; assay type: organism-based; conditions: in vivo, 408 h, dose 1-10 mg/kg, time 17 day
[18] = Toxicity in female BALB/c mouse implanted with mouse orthotopic 4T1-Luc cells assessed as effect on serum ALT level at 1 to 10 mg/kg, iv administered via tail vein every 2 days for 9 times for 17 days; assay type: organism-based; conditions: in vivo, 408 h, dose 1-10 mg/kg, time 17 day
[19] = Toxicity in female BALB/c mouse implanted with mouse orthotopic 4T1-Luc cells assessed as effect on serum AST level at 1 to 10 mg/kg, iv administered via tail vein every 2 days for 9 times for 17 days; assay type: organism-based; conditions: in vivo, 408 h, dose 1-10 mg/kg, time 17 day
[20] = Toxicity in female BALB/c mouse implanted with mouse orthotopic 4T1-Luc cells assessed as effect on serum urea level at 1 to 10 mg/kg, iv administered via tail vein every 2 days for 9 times for 17 days; assay type: organism-based; conditions: in vivo, 408 h, dose 1-10 mg/kg, time 17 day
[21] = Toxicity in female BALB/c mouse implanted with mouse orthotopic 4T1-Luc cells assessed as morphological changes in heart at 1 to 10 mg/kg, iv administered via tail vein every 2 days for 9 times for 17 days by H and E staining based analysis; assay type: organism-based; conditions: in vivo, 408 h, dose 1-10 mg/kg, time 17 day
[22] = Toxicity in female BALB/c mouse implanted with mouse orthotopic 4T1-Luc cells assessed as morphological changes in liver at 1 to 10 mg/kg, iv administered via tail vein every 2 days for 9 times for 17 days by H and E staining based analysis; assay type: organism-based; conditions: in vivo, 408 h, dose 1-10 mg/kg, time 17 day
[23] = Toxicity in female BALB/c mouse implanted with mouse orthotopic 4T1-Luc cells assessed as morphological changes in spleen at 1 to 10 mg/kg, iv administered via tail vein every 2 days for 9 times for 17 days by H and E staining based analysis; assay type: organism-based; conditions: in vivo, 408 h, dose 1-10 mg/kg, time 17 day
[24] = test system: Mus musculus; experiment: (§1) Induction of tumor microenvironment in female BALB/c mouse implanted with mouse orthotopic 4T1-Luc cells assessed as downregulation of myeloid derived suppressive M-MDSC cells at 1 to 10 mg/kg, iv administered via tail vein every 2 days for 9 times for 17 days by single-cell mass spectrometry flow cytometry analysis; assay type: functional, organism-based; conditions: dose 1-10 mg/kg, time 17.0 day
[25] = test system: Mus musculus; experiment: as §1, with “G-MDSC” for “M-MDSC”; assay type: functional, organism-based; conditions: dose 1-10 mg/kg, time 17.0 day
[26] = test system: Mus musculus; experiment: as §1, with “increase in proportion” for “downregulation”, “MHC-II-positive tumor-associated neutrophils” for “myeloid derived suppressive M-MDSC cells”; assay type: functional, organism-based; conditions: dose 1-10 mg/kg, time 17.0 day
[27] = test system: Mus musculus; experiment: as §1, with “decrease in proportion” for “downregulation”, “PD-L1-positive/MHC-II-positive tumor-associated neutrophils” for “myeloid derived suppressive M-MDSC cells”; assay type: functional, organism-based; conditions: dose 1-10 mg/kg, time 17.0 day
[28] = test system: Mus musculus; experiment: as §1, with “decrease in proportion” for “downregulation”, “MHC-II-negative tumor-associated neutrophils” for “myeloid derived suppressive M-MDSC cells”; assay type: functional, organism-based; conditions: dose 1-10 mg/kg, time 17.0 day
[29] = test system: Mus musculus; experiment: Induction of tumor microenvironment in female BALB/c mouse implanted with mouse orthotopic 4T1-Luc cells assessed as decrease in PD-L1 expression for PD-L1-positive/MHC-II-positive tumor-associated neutrophils at 1 to 10 mg/kg, iv administered via tail vein every 2 days for 9 times for 17 days; assay type: functional, organism-based; conditions: dose 1-10 mg/kg, time 17.0 day
[30] = test system: Mus musculus; experiment: Induction of tumor microenvironment in female BALB/c mouse implanted with mouse orthotopic 4T1-Luc cells assessed as increase in MHC-II expression for MHC-II-positive tumor-associated neutrophils at 1 to 10 mg/kg, iv administered via tail vein every 2 days for 9 times for 17 days; assay type: functional, organism-based; conditions: dose 1-10 mg/kg, time 17.0 day
[31] = test system: Mus musculus; experiment: Induction of tumor microenvironment in female BALB/c mouse implanted with mouse orthotopic 4T1-Luc cells assessed as increase in MHC-II expression for MHC-II-negative tumor-associated neutrophils at 1 to 10 mg/kg, iv administered via tail vein every 2 days for 9 times for 17 days; assay type: functional, organism-based; conditions: dose 1-10 mg/kg, time 17.0 day

Sequence of Protein-arginine deiminase type-4 (Mus musculus) (Q9Z183 whole entry): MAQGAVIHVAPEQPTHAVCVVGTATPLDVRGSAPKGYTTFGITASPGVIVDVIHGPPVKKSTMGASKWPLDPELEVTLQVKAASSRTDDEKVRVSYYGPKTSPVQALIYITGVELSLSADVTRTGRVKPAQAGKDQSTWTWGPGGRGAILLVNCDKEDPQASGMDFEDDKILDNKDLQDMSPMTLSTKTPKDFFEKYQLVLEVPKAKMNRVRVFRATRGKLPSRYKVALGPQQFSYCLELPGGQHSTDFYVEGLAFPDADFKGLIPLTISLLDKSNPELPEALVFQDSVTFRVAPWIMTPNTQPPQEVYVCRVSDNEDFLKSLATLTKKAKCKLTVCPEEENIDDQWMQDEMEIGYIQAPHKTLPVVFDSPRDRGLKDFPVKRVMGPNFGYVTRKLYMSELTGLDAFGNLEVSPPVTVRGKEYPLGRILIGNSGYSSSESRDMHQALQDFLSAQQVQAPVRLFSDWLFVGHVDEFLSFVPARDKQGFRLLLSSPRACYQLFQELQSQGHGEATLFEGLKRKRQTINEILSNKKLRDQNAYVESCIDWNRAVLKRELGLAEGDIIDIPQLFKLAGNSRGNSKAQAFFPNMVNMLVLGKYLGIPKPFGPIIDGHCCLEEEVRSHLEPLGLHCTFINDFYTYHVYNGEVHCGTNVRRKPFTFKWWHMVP
Sequence of Protein-arginine deiminase type-2 (Q9Y2J8 whole entry): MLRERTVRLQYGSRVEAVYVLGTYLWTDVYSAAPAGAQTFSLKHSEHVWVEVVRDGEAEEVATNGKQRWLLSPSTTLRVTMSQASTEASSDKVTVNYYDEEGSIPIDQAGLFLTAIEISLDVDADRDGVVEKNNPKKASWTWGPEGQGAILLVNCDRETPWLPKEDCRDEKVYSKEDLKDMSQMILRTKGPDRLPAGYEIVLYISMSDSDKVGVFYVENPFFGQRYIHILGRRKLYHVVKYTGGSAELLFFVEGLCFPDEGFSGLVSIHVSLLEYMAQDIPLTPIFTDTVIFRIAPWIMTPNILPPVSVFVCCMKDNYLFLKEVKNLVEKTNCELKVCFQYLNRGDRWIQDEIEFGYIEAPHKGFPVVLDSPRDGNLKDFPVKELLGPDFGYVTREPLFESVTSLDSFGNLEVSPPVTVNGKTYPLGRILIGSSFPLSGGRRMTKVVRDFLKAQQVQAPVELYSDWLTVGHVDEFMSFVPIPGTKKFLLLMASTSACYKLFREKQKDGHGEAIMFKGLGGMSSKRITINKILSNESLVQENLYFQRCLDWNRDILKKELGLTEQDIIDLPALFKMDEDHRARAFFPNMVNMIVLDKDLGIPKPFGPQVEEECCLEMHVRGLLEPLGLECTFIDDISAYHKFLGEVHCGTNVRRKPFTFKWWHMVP

IC50 [1]: 2.97 µM
inhibition [5]: Dose-Dependent Effect
inhibition [7]: Active
inhibition [8]: Active
Cmax [9]: 297.71 ng/mL
AUC(0-t) [10]: 9.53 ng·h/mL
AUC [11]: 17346.55 ng·h/mL
SMILES: N=C(CCl)NCCC[C@H](NC(=O)c1cc2c([nH]c3ccccc32)c(-c2ccccc2)n1)C(=O)NCc1ccccc1
IC50 at 48 h [2]: 8.39 µM
Activity [3]: Dose-Dependent Effect
Activity [4]: Dose-Dependent Effect
Activity [6]: Active
Activity [12]: Dose-Dependent Effect
inhibition in vivo at 10 mg/kg [13]: 61.8%
Activity [14]: Dose-Dependent Effect
Activity [15]: Dose-Dependent Effect
Activity [16]: Dose-Dependent Effect
Activity [17]: Non-Toxic
Activity [18]: Non-Toxic
Activity [19]: Non-Toxic
Activity [20]: Non-Toxic
Activity [21]: Non-Toxic
Activity [22]: Non-Toxic
Activity [23]: Non-Toxic
Activity [24]: Active
Activity [25]: Active
Activity [26]: Active
Activity [27]: Active
Activity [28]: Active
Activity [29]: Active
Activity [30]: Active
Activity [31]: Active
